How the values were obtained:
Conditions in all cases: 48 h
NCI-H295R = test: area under concentration-response curve (viability) (AUC (a.u.)); higher = less active
Outline: (§1)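 Cells from three adrenocortical carcinoma lines were seeded at 500–1,000 cells/well in 5 µL medium in 1,536-well plates. Each library compound was added as 23 nL at 11 concentrations, and after 48 h CellTiter-Glo was added for 15 minutes at room temperature before reading luminescence. Plate-wise normalisation to vehicle and empty-well controls preceded curve fitting. AC50 and area under the curve were calculated only for inhibitory or non-responding curve classes.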

CU-ACC1 [1] = test: as above
Outline: as §1

CU-ACC1 [2] = test: AC50 viability; higher = less potent
Outline: as §1

CU-ACC2 = test: area under concentration-response curve (viability) (AUC (a.u.)); higher = less active
Outline: as §1

| SMILES | area under concentration-response curve (NCI-H295R) | area under concentration-response curve (CU-ACC1 [1]) | AC50 viability (CU-ACC1 [2]) [µM] | area under concentration-response curve (CU-ACC2) |
| --- | --- | --- | --- | --- |
| O=C(O)[C@H](O)[C@@H](O)[C@H](O[C@@H]1O[C@H](CO)[C@H](O)[C@H](O)[C@H]1O)[C@H](O)CO | 307 | 342 | 0.00118 | – |
| CN(C)C(=O)c1ccc([S+](=O)([O-])c2ccc(NC(=O)[C@@](C)(O)C(F)(F)F)c(Cl)c2)cc1 | – | 346 | 5.25 | 640 |
| O=C(NO)C1(C[S+](=O)([O-])c2ccc(Oc3ccc(Cl)cc3)cc2)CCOCC1 | – | 450 | 16.6 | 553 |
| Cc1ccc(-n2nc(C(C)(C)C)cc2NC(=O)Nc2ccc(OCCN3CCOCC3)c3ccccc23)cc1 | – | 374 | 29.5 | 499 |
| CCOC(=O)c1c(CSc2ccccc2)n(C)c2cc(Br)c(O)c(CN(C)C)c12 | – | 476 | 37.2 | 600 |
| OC1=CC=C(C=C1)C/2=C/C3=C(OC2)C=C(O)C=C3 | 471 | 436 | 18.6 | – |
| [O-][n+]1cccc(-c2nc3c(Cl)cccc3cc2[C@@H](Nc2ncnc3cccnc23)C(F)(F)F)c1 | – | 332 | 26.3 | 368 |
| CN(C)Cc1ccc(-c2nc3cccc4c3n2CCNC4=O)cc1 | – | 294 | 33.2 | 216 |
| FC(F)(F)c1ccc(Nc2nc3cc(Oc4ccnc(-c5ncc(C(F)(F)F)[nH]5)c4)ccc3[nH]2)cc1 | – | 479 | 4.68 | 603 |
| O=C(NOCC(O)CO)c1cc(Br)c(F)c(F)c1Nc1ccc(I)cc1F (stereo not given) | – | 416 | 1.18 | 407 |
| CC(=O)N(O)CCCCCNC(=O)CCC(=O)N(O)CCCCCNC(=O)CCC(=O)N(O)CCCCCN | 432 | 379 | 11.8 | – |
| C[C@@H](Nc1cc(F)cc(F)c1)c1cc(C(=O)N(C)C)cc2c(=O)cc(N3CCOCC3)oc12 | – | 466 | 13.2 | – |
| NC(=O)c1noc([C@H](CCCC2CCCCC2)CC(=O)NO)n1 | – | 446 | 41.7 | 531 |
| O=C(Nc1ccc(OC(F)(F)Cl)cc1)c1cnc(N2CC[C@@H](O)C2)c(-c2ccn[nH]2)c1 | – | 442 | 33.2 | 574 |
| CC(C)c1c(C(=O)Nc2ccccc2)c(-c2ccccc2)c(-c2ccc(F)cc2)n1CC[C@@H](O)C[C@@H](O)CC(=O)O | 635 | 544 | 6.45 | – |
| Cc1cc(C)c(C/N=C(\O)c2cc(-c3ccc(N4CCN(C)CC4)nc3)cc3c2c(C)cn3C(C)C)c(O)n1 | – | 490 | 29.5 | – |
| O=C(N[C@H]1CCC[C@H](CO)C1)C1CCN(c2nc3cc(Cl)c(-c4ccc(Cl)cc4)cc3o2)CC1 | – | 484 | 20.9 | – |
| ClC1=C[NH]N=C1C\2NC(=N\C3=C2C(=O)CCC3)/NC4=NC5=CC=CC=C5O4 (stereo not given) | – | 426 | 41.7 | – |
| CN(C)c1ccccc1CN1CCCN(Cc2ccccc2N(C)C)C1c1ccncc1 | 444 | 448 | 8.33 | – |
| COc1cc(N2CCC(N3CCN(C)CC3)CC2)ccc1Nc1ncnc(Nc2ccccc2[S+](=O)([O-])C(C)C)n1 | – | 258 | 0.00468 | – |
| CC(C)[N]1C=C(C)C2=C1C=C(C=C2C(=O)NC\C3=C(C)\C=C(C)/NC3=O)C4=CC=C(N=C4)N5CCN(C)CC5 | – | 491 | 23.5 | – |
| CCc1ccc(/C=C2/SC(=S)NC2=O)cc1 | 394 | 396 | 2.63 | – |
| CN(C)CCN1C(=O)c2cccc3cc(N)cc(c23)C1=O | – | 452 | 26.3 | – |
| CC1=C(OC2=CC3=NC=N[N]3C=C2)C=CC(=C1)NC4=NC=NC5=C4C=C(N\C6=N\C(C)(C)CO6)C=C5 | – | 402 | 0.00296 | – |
| Cc1cc2c(F)c(Oc3ncnn4cc(OC[C@@H](C)O)c(C)c34)ccc2[nH]1 | 329 | 317 | 0.00263 | – |
| O=C1CSC(=O)N1C(CCc1ccncc1)COc1ccc(-c2cccc([N+](=O)[O-])c2)cc1 (stereo not given) | 396 | 309 | 2.63 | – |

| SMILES | area under concentration-response curve (NCI-H295R) | area under concentration-response curve (CU-ACC1 [1]) | AC50 viability (CU-ACC1 [2]) [µM] | area under concentration-response curve (CU-ACC2) |
| --- | --- | --- | --- | --- |
| CN(C)CCCN\C1=C\2C(=O)N(C)C(=O)\N=C2N(C)C3=C1C=CC=C3 | – | 501 | 18.6 | – |
| C[C@](O)(COc1ccc(C#N)cc1)C(=O)Nc1ccc(C#N)c(C(F)(F)F)c1 | 248 | 322 | 0.00118 | – |
| c1nc2c(NC3CCCCC3)nc(Nc3ccc(N4CCOCC4)cc3)nc2[nH]1 | 274 | 283 | 0.00118 | – |
| CCn1c(-c2nonc2N)nc2cncc(CNC3CCNCC3)c21 | 526 | 477 | 14.8 | – |
| O=C(/C=C/c1ccc(Cl)cc1)N1CCC2(CC1)CN(Cc1ccc(Cl)c(Cl)c1)C(=O)O2 | – | 432 | 20.9 | – |
| Nc1ncnc(Nc2ccc(OCc3ccccc3)c(Cl)c2)c1/C=N/OCCN1CCOCC1 | – | 324 | 20.9 | – |
| CC(=O)O[C@@]1(CC[C@H]2[C@@H]3\C=C(Cl)/C4=C/C(=O)[C@@H]5C[C@@H]5[C@]4(C)[C@H]3CC[C@]12C)C(C)=O | 304 | 325 | 2.35 | – |
| C[C@H](NC(=O)[C@@H](O)c1cc(F)cc(F)c1)C(=O)N[C@@H]1C(=O)N(C)c2ccccc2-c2ccccc21 | 424 | 381 | 26.3 | – |
| Cc1nc2cc(C(=O)N3CCC4(CC3)CC(=O)c3c(cnn3C(C)C)C4)ccc2[nH]1 | 568 | 467 | 26.3 | – |
| OCCOc1ccc(/C(=C(/CCCl)c2ccccc2)c2ccccc2)cc1 | – | 470 | 23.5 | – |
| CC1=CC=CC=C1CN2C(=O)C/3=C(/CCN(CC4=CC=CC=C4)C3)N\5CC\N=C25 | – | 313 | 6.61 | – |
| COc1cccc2c1CCCC2CCCN1CCN(C2CCCCC2)CC1 (stereo not given) | – | 501 | 16.6 | – |
| CN1CC[C@H]([C@@H]1CO)C2=C3OC(=C/C(=O)C3=C(O)C=C2O)\C4=C(Cl)C=C(C=C4)C(F)(F)F | 538 | 477 | 14.8 | – |
| CC(=O)N1CCN(CCOC2=CC=C(C=C2)C3CCN(CC3)/C4=N/[N]5C(=NN=C5C(F)(F)F)CC4)CC1 | – | 430 | 11.8 | – |
| O=C1N\N=C(\CC2=CC=CC(=C2)C(=O)N3CCN(CC3)C4=NC=CC=C4C#N)C5=CC=CC=C15 | 548 | 450 | 18.6 | – |
| COC[C@H]1OC(=O)C2=COC3=C2[C@@]1(C)\C4=C(\[C@@H]5CC[C@H](O)[C@@]5(C)C[C@H]4OC(C)=O)C3=O | – | 311 | 4.17 | – |
| N#Cc1ccc(COC[C@H]2O[C@@H](n3c(NCc4ccc(Cl)c(Cl)c4)nc4c(N)ncnc43)[C@H](O)[C@@H]2O)cc1 | 494 | 464 | 20.9 | – |
| CN(C)Cc1cccc(N/C(=C2\C(=O)Nc3cc(C(N)=O)ccc32)c2ccccc2)c1 | – | 420 | 23.5 | – |
| CN(C)CCCOc1ccc(-c2ccc3ncc4c(c3c2)n(C2CCOCC2)c(=O)n4C)cn1 | – | 487 | 11.5 | – |
| CCN(CC)CCCCNc1nc2cc(Cl)c(Cl)cc2nc1-c1ccc(-c2cccs2)s1 | – | 451 | 23.5 | – |
| N[C@@H]1C[C@H]1c1ccccc1 | 353 | 341 | 0.00186 | – |
| CCCCCNC(=N)N/N=C/c1c[nH]c2ccc(OC)cc12 | – | 416 | 14.8 | – |
| O=C(O)CC[C@H]1CC[C@@](c2cc(F)ccc2F)([S+](=O)([O-])c2ccc(Cl)cc2)CC1 | 255 | 359 | 0.00105 | – |
| COc1ccccc1N1CCN(CCN(C(=O)C2CCCCC2)c2ccccn2)CC1 | 378 | 351 | 20.9 | – |
| O=C(NO)c1cnc(NC2(c3cccc(F)c3)CCCCC2)nc1 | 538 | 474 | 20.9 | – |
| C[C@H](NC1=C2N=C[NH]C2=NC=N1)C/3=C/C4=C(C(=CC=C4)Cl)C(=O)N3C5=CC=CC=C5 | – | 447 | 20.9 | – |
